Experimental data: paper PMC9387934, “Randomized single oral dose phase 1 study of safety, tolerability, and pharmacokinetics of Iminosugar UV-4 Hydrochloride (UV-4B) in healthy subjects” (PLoS Neglected Tropical Diseases, 2022)
Counter-ions that a name gives are not always drawn.

Test: Phase 1a single ascending dose study: UV-4 plasma concentrations and PK parameters (LC-MS/MS, noncompartmental)
Type: in vivo
Conditions: for Tmax: median
Experimental: UV-4 ((2R,3R,4R,5S)-2-(hydroxymethyl)-1-(9-methoxynonyl)piperidine-3,4,5-triol, also called N-(9’-methoxynonyl)-1-deoxynojirimycin, or MON-DNJ) hydrochloride was evaluated in a first-in-human, randomized, single-center, double-blind, placebo-controlled, parallel group, single ascending dose Phase 1a clinical trial in healthy subjects (Figs 1 and 2, ClinicalTrials.gov Identifier NCT02061358 https://clinicaltrials.gov/ct2/show/NCT02061358). The primary objective was to determine the safety and tolerability of a single-ascending oral dose of UV-4 hydrochloride (Fig 3). […] The secondary objective was to determine PK parameters describing absorption and elimination of UV-4 following a single oral dose of UV-4 hydrochloride. Eight cohorts of eight subjects each were enrolled and completed the study. In each cohort, six subjects received UV-4 as the hydrochloride; two received placebo. Subjects were screened against study eligibility criteria up to four weeks (Days -28 to -2) before admission to the clinic (Day -1). Dosing was performed on an inpatient basis. Subjects remained in clinic for 48 hours post-dosing for PK sample collection and safety assessments and were discharged from the clinic on Day 3. Subjects returned to the clinic on Day 4 for additional safety assessments, then again on Day 9 ± 1 for a final follow-up visit.
Eligible subjects were healthy males and females, age 18–45 years, with a body mass index between 18 and 30 kg/m^2 inclusive and a minimum body weight of 60 kg. Subjects were considered healthy based on medical history, physical exam, vital signs, 12-lead electrocardiogram (ECG), clinical laboratory tests (hematology, blood chemistry, urinalysis), viral serology, and drug and alcohol screening. Male and female subjects of childbearing potential were required to use adequate contraception over the course of the clinical trial. […] Only subjects who met all inclusion and none of the exclusion criteria prior to administration of the investigational product were enrolled into the study (no exemptions were granted). A total of 64 subjects were enrolled (eight cohorts of eight subjects each). In each of the eight cohorts, six subjects were randomized to receive a single dose of UV-4 (3 to 1000 mg, depending on cohort) as the hydrochloride salt, and two subjects to receive placebo. Cohort size of six active subjects was based on analysis that increasing cohort size above six in a first-in-human study gains little in the ability to observe a drug induced event, and results in observing more events that are not related to study drug. Two of the eight subjects in each cohort (sentinel subjects; one active and one placebo) received their doses at least 48 h before the remaining subjects in each cohort.
On each day of use, bulk drug substance (UV-4B for solubilization, SAI Life Sciences Ltd. Telangana, India) was removed from a single-use container, weighed at the study center, and solubilized in 20 mL sterile water for injection (SWFI) (Hospira Inc. Illinois, United States of America). Weight of solid drug substance was converted to dose of UV-4 by applying purity and salt correction factor per pharmacy manual when preparing the dosing solution. UV-4B solution was administered orally with 10 mL of taste-masking agent, OraSweet-SF (Paddock Laboratories LLC, Minneapolis, United States of America) in a total volume of 30 mL, to assist in maintaining study blinding. Placebo was SWFI (20 mL) plus OraSweet-SF (10 mL). Concentrations and doses were calculated and expressed as the active free base form, UV-4. This methodology is consistent with USP<1121>, which recommends that the strength of a drug product or preparation is expressed in terms of the active moiety. Following consumption of active or placebo solution, the dosing container was rinsed with 50 mL of tap water also consumed by subjects. […]

[1] = 3 mg single oral dose, Geo Mean
[2] = 10 mg single oral dose, Ar Mean
[3] = 10 mg single oral dose, Geo Mean
[4] = 30 mg single oral dose, Ar Mean
[5] = 30 mg single oral dose, Geo Mean
[6] = 90 mg single oral dose, Ar Mean
[7] = 90 mg single oral dose, Geo Mean
[8] = 180 mg single oral dose, Ar Mean
[9] = 180 mg single oral dose, Geo Mean
[10] = 360 mg single oral dose, Ar Mean
[11] = 360 mg single oral dose, Geo Mean

COCCCCCCCCCN1C[C@H](O)[C@@H](O)[C@H](O)[C@H]1CO [UV-4B, N-(9’-methoxynonyl)-1-deoxynojirimycin hydrochloride]
AUC(0-inf) (3 mg single oral dose, Ar Mean): 95.6 ng·h/mL
CL/F (3 mg single oral dose, Ar Mean): 32.1 L/h
Cmax (3 mg single oral dose, Ar Mean): 22.4 ng/mL
DNAUC(0-inf) (3 mg single oral dose, Ar Mean): 31.9 ng·h/mL/mg
DNCmax (3 mg single oral dose, Ar Mean): 7.45 ng/mL/mg
t1/2 (3 mg single oral dose, Ar Mean): 10.7 h
CL/F [1]: 31.7 L/h
Cmax [1]: 22.1 ng/mL
DNAUC(0-inf) [1]: 31.5 ng·h/mL/mg
DNCmax [1]: 7.38 ng/mL/mg
t1/2 [1]: 10.3 h
Tmax (3 mg single oral dose): 0.50 h
CL/F [2]: 24.3 L/h
Cmax [2]: 84.6 ng/mL
DNAUC(0-inf) [2]: 43.1 ng·h/mL/mg
DNCmax [2]: 8.46 ng/mL/mg
t1/2 [2]: 12.0 h
CL/F [3]: 23.8 L/h
Cmax [3]: 82.6 ng/mL
DNAUC(0-inf) [3]: 42.0 ng·h/mL/mg
DNCmax [3]: 8.26 ng/mL/mg
t1/2 [3]: 11.9 h
Tmax (10 mg single oral dose): 1.00 h
CL/F [4]: 24.0 L/h
Cmax [4]: 293 ng/mL
DNAUC(0-inf) [4]: 42.0 ng·h/mL/mg
DNCmax [4]: 9.76 ng/mL/mg
t1/2 [4]: 10.0 h
CL/F [5]: 23.9 L/h
Cmax [5]: 289 ng/mL
DNAUC(0-inf) [5]: 41.8 ng·h/mL/mg
DNCmax [5]: 9.64 ng/mL/mg
t1/2 [5]: 9.98 h
Tmax (30 mg single oral dose): 0.50 h
CL/F [6]: 24.5 L/h
Cmax [6]: 946 ng/mL
DNAUC(0-inf) [6]: 41.4 ng·h/mL/mg
DNCmax [6]: 10.5 ng/mL/mg
t1/2 [6]: 10.4 h
CL/F [7]: 24.3 L/h
Cmax [7]: 900 ng/mL
DNAUC(0-inf) [7]: 41.1 ng·h/mL/mg
DNCmax [7]: 10.0 ng/mL/mg
t1/2 [7]: 10.2 h
Tmax (90 mg single oral dose): 0.50 h
CL/F [8]: 25.4 L/h
Cmax [8]: 2150 ng/mL
DNAUC(0-inf) [8]: 39.5 ng·h/mL/mg
DNCmax [8]: 12.0 ng/mL/mg
t1/2 [8]: 8.71 h
CL/F [9]: 25.4 L/h
Cmax [9]: 2060 ng/mL
DNAUC(0-inf) [9]: 39.4 ng·h/mL/mg
DNCmax [9]: 11.5 ng/mL/mg
t1/2 [9]: 8.66 h
Tmax (180 mg single oral dose): 0.75 h
CL/F [10]: 26.5 L/h
Cmax [10]: 4570 ng/mL
DNAUC(0-inf) [10]: 38.4 ng·h/mL/mg
DNCmax [10]: 12.7 ng/mL/mg
t1/2 [10]: 8.14 h
CL/F [11]: 26.3 L/h
Cmax [11]: 4490 ng/mL
DNAUC(0-inf) [11]: 38.1 ng·h/mL/mg
DNCmax [11]: 12.5 ng/mL/mg
t1/2 [11]: 8.11 h
Tmax (360 mg single oral dose): 0.50 h
CL/F (720 mg single oral dose, Ar Mean): 22.1 L/h
